PubChem BioAssay AID1963960 (Molecular Pharmacology Branch, DTP, NCI, 2024)

Test system: MDA-MB-468 spheroids with HUVEC/MSC, viability
Test: Anticancer human tumor MDA-MB-468 cell line growth inhibition [PI3K];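 further: spheroids exposed to agents for seven days before readout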;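 on viability, T/C: 100% = DMSO vehicle control viability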
Settings: for IC50: curve of first compound; for viability, T/C: stronger effect = lower value
Source text: Combinatorial screen of targeted agents with the PI3K inhibitors inavolisib, alpelisib, duvelisib, and copanlisib in multi-cell type tumor spheroids
A high-throughput screen of multi-cell type tumor spheroids was designed to identify active combinations of targeted small molecules and PI3K pathway inhibitors. Complex spheroids include a stromal component modeled by human endothelial cells (HUVEC) and fibroblasts modeled by human mesenchymal stem cells (MSCs). The concentration ranges selected for each drug and investigational agent were based upon clinically achievable concentrations if the clinical Cmax of the agent was known.
Compounds. The drugs and investigational agents: inavolisib (NSC800729), alpelisib (NSC765974), duvelisib (NSC772469), copanlisib (NSC816437), ipatasertib (NSC767898), afuresertib (NSC778305), talazoparib (NSC767125), sapanisertib (NSC764658), selumetinib (NSC741078), tovorafenib (DAY101, NSC766906), vemurafenib (NSC761431), ravoxertinib (NSC781343), sotorasib (NSC818433), MRTX1133 (NSC 836407), abemaciclib (NSC 768073), palbociclib (NSC758247), venetoclax (NSC 766270), SY5609 (NSC837396), enzalutamide (NSC755605), and darolutamide (NSC825331), were obtained from the National Cancer Institute (NCI) Developmental Therapeutics Program Chemical Repository. The FDA-approved anticancer drug set is available from the NCI Developmental Therapeutics Program. […] The stock solutions were prepared in dimethyl sulfoxide (DMSO, Sigma-Aldrich, St. Louis, MO, cat. D2650) at 800-fold the tested concentration and stored at -70 degrees C prior to their use. All drugs and investigational agents were tested over a range starting from a high concentration at or near the clinical Cmax and decreasing in half-log increments. If the clinical Cmax for an agent had not been determined, the highest concentration tested was 10 microM.
Cell Culture. All cells were maintained in an incubator at 37 degrees C and 5% CO2 with 95% humidity. The PDC lines were cultured according to standard operating procedures established by the NCI PDMR (https://pdmr.cancer.gov/sops/default.htm). All PDCs were thawed and cultured in Matrigel-coated flasks prepared with a working solution of 1X Ham's F-12 nutrient mix, without supplementation (Invitrogen, Waltham, MA, cat. 11765054), 100 U/mL penicillin-streptomycin (Invitrogen, cat. 15140122), and 2.5% Matrigel (Corning Inc., Corning, NY, cat. 354248) for the first three passages. The 354836-022-R-J1-PDC, 475296-252-R-J1-PDC, and 997726-040-R-J2-PDC lines were cultured in 6A media, which includes advanced DMEM/F-12 (Thermo Fisher Scientific, cat. 12634028), 10 mM HEPES (Thermo Fisher Scientific, cat. 15630080), 1X GlutaMAX supplement (Thermo Fisher Scientific, cat. 35050061), 0.1 mg/mL primocin (InvivoGen, San Diego, CA, cat. ant-pm-2), 10% defined fetal bovine serum, heat inactivated (HyClone Laboratories Inc., Logan, UT, cat. SH30070.03HI), 50% L-WRN conditioned media (ATCC, cat. CRL-3276), 1.25 mM N-Acetyl-L-cysteine (Sigma-Aldrich, cat. A9165), 10 mM nicotinamide (Sigma-Aldrich, cat. N0636), 1X B-27 supplement (Thermo Fisher Scientific, cat. 17504044), 1X N-2 supplement (Thermo Fisher Scientific, cat. 17502048), and 10 microM Y-27632 dihydrochloride (Tocris Bioscience, Bristol, United Kingdom, cat. 1254). The 624824-186-R-J2-PDC line was cultured in 6C/Colon 1B media, which includes all 6A media components plus 50 ng/mL human EGF recombinant protein (Thermo Fisher Scientific, cat. PHG0311). […]

[1] = second compound 0.00316 µM, first compound 0.0316 µM
[2] = second compound 0.00316 µM, first compound 0.1 µM
[3] = second compound 0.01 µM, first compound 0.0316 µM
[4] = second compound 0.01 µM, first compound 0.1 µM
[5] = second compound 0.0316 µM, first compound 0.0316 µM
[6] = second compound 0.0316 µM, first compound 0.1 µM
[7] = second compound 0.1 µM, first compound 0.0316 µM
[8] = second compound 0.1 µM, first compound 0.1 µM
[9] = second compound 0.316 µM, first compound 0.0316 µM
[10] = second compound 0.316 µM, first compound 0.1 µM
[11] = second compound 1 µM, first compound 0.0316 µM
[12] = second compound 1 µM, first compound 0.1 µM

CC(C)n1nc(-c2ccc3oc(N)nc3c2)c2c(N)ncnc21 + CC(Nc1ccc2c(c1)OCCn1cc(N3C(=O)OCC3C(F)F)nc1-2)C(N)=O
IC50 (second compound 0.00316 µM): 48.5 nM
IC50 (second compound 0.01 µM): 41.8 nM
IC50 (second compound 0.0316 µM): 38.5 nM
IC50 (second compound 0.1 µM): 36.7 nM
IC50 (second compound 0.316 µM): 31.2 nM
IC50 (second compound 1 µM): 23 nM
viability, T/C (second compound 0.00316 µM, first compound 0.000316 µM): 89.9%
viability, T/C (second compound 0.00316 µM, first compound 0.001 µM): 100%
viability, T/C (second compound 0.00316 µM, first compound 0.00316 µM): 91.8%
viability, T/C (second compound 0.00316 µM, first compound 0.01 µM): 92.6%
viability, T/C [1]: 69.5%
viability, T/C [2]: 16.7%
viability, T/C (second compound 0.01 µM, first compound 0.000316 µM): 95.1%
viability, T/C (second compound 0.01 µM, first compound 0.001 µM): 96.8%
viability, T/C (second compound 0.01 µM, first compound 0.00316 µM): 88%
viability, T/C (second compound 0.01 µM, first compound 0.01 µM): 99%
viability, T/C [3]: 59.2%
viability, T/C [4]: 21.1%
viability, T/C (second compound 0.0316 µM, first compound 0.000316 µM): 100%
viability, T/C (second compound 0.0316 µM, first compound 0.001 µM): 94.8%
viability, T/C (second compound 0.0316 µM, first compound 0.00316 µM): 77.4%
viability, T/C (second compound 0.0316 µM, first compound 0.01 µM): 83%
viability, T/C [5]: 58.5%
viability, T/C [6]: 15%
viability, T/C (second compound 0.1 µM, first compound 0.000316 µM): 103%
viability, T/C (second compound 0.1 µM, first compound 0.001 µM): 82.4%
viability, T/C (second compound 0.1 µM, first compound 0.00316 µM): 87.8%
viability, T/C (second compound 0.1 µM, first compound 0.01 µM): 82.3%
viability, T/C [7]: 54.2%
viability, T/C [8]: 11.8%
viability, T/C (second compound 0.316 µM, first compound 0.000316 µM): 87.2%
viability, T/C (second compound 0.316 µM, first compound 0.001 µM): 82.8%
viability, T/C (second compound 0.316 µM, first compound 0.00316 µM): 87.6%
viability, T/C (second compound 0.316 µM, first compound 0.01 µM): 84.9%
viability, T/C [9]: 49.6%
viability, T/C [10]: 12.7%
viability, T/C (second compound 1 µM, first compound 0.000316 µM): 105%
viability, T/C (second compound 1 µM, first compound 0.001 µM): 80.8%
viability, T/C (second compound 1 µM, first compound 0.00316 µM): 75.2%
viability, T/C (second compound 1 µM, first compound 0.01 µM): 70.8%
viability, T/C [11]: 46.6%
viability, T/C [12]: 12.3%

CCCS(=O)(=O)Nc1ccc(F)c(C(=O)c2c[nH]c3ncc(-c4ccc(Cl)cc4)cc23)c1F + CC(Nc1ccc2c(c1)OCCn1cc(N3C(=O)OCC3C(F)F)nc1-2)C(N)=O
IC50 (second compound 0.00316 µM): 5330 nM
IC50 (second compound 0.01 µM): 5160 nM
IC50 (second compound 0.0316 µM): 5070 nM
IC50 (second compound 0.1 µM): 4530 nM
IC50 (second compound 0.316 µM): 3620 nM
IC50 (second compound 1 µM): 3720 nM
viability, T/C [1]: 89.1%
viability, T/C [2]: 114%
viability, T/C (second compound 0.00316 µM, first compound 0.316 µM): 100%
viability, T/C (second compound 0.00316 µM, first compound 1 µM): 94.4%
viability, T/C (second compound 0.00316 µM, first compound 3.16 µM): 78.9%
viability, T/C (second compound 0.00316 µM, first compound 10 µM): 15.6%
viability, T/C [3]: 101%
viability, T/C [4]: 90%
viability, T/C (second compound 0.01 µM, first compound 0.316 µM): 90.6%
viability, T/C (second compound 0.01 µM, first compound 1 µM): 104%
viability, T/C (second compound 0.01 µM, first compound 3.16 µM): 74.8%
viability, T/C (second compound 0.01 µM, first compound 10 µM): 16.4%
viability, T/C [5]: 106%
viability, T/C [6]: 98.7%
viability, T/C (second compound 0.0316 µM, first compound 0.316 µM): 86.8%
viability, T/C (second compound 0.0316 µM, first compound 1 µM): 103%
viability, T/C (second compound 0.0316 µM, first compound 3.16 µM): 74.8%
viability, T/C (second compound 0.0316 µM, first compound 10 µM): 14.2%
viability, T/C [7]: 95.4%
viability, T/C [8]: 90.6%
viability, T/C (second compound 0.1 µM, first compound 0.316 µM): 85.6%
viability, T/C (second compound 0.1 µM, first compound 1 µM): 94.5%
viability, T/C (second compound 0.1 µM, first compound 3.16 µM): 66.2%
viability, T/C (second compound 0.1 µM, first compound 10 µM): 14.5%
viability, T/C [9]: 95.6%
viability, T/C [10]: 89.1%
viability, T/C (second compound 0.316 µM, first compound 0.316 µM): 79.2%
viability, T/C (second compound 0.316 µM, first compound 1 µM): 94.1%
viability, T/C (second compound 0.316 µM, first compound 3.16 µM): 55%
viability, T/C (second compound 0.316 µM, first compound 10 µM): 12.1%
viability, T/C [11]: 85.3%
viability, T/C [12]: 88.3%
viability, T/C (second compound 1 µM, first compound 0.316 µM): 78.7%
viability, T/C (second compound 1 µM, first compound 1 µM): 67.2%
viability, T/C (second compound 1 µM, first compound 3.16 µM): 61.4%
viability, T/C (second compound 1 µM, first compound 10 µM): 11%
